Legend:
NIH 3T3 cells = assay: Col1a1/Col3a1 mRNA expression in dermal fibroblasts (qRT-PCR); assay type: cell-based, mouse; conditions: for collagen transcription (Col1a1/Col3a1 mRNA): NIH 3T3 stimulated with 1 μM S1P for 24 hours in presence of 10 μM inhibitor
Description: Mouse dermal fibroblast NIH 3T3 cells were cultured in DMEM. To analyze the production of collagens, ascorbic acid 2-phosphate (Sigma-Aldrich) was added in culture medium to 0.2 mM of final concentration.
We performed sCA preparation as previously published (23). We mixed 4 μl of 1M CaCl2) with 2 μg of plasmid DNA in 1 mL of an inorganic solution (NaHCO3; 44 mM, NaH2PO4; 0.9 mM, CaCl2); 1.8 mM, pH 7.5), then incubated at 37° C. for 30 min. The solution was centrifuged at 12,000 rpm for 3 min, and the pellet was dissolved with DMEM. We sonicated the solution in a water bath for 10 min to generate sCA. Cells were cultured in 6 well plate for 24 hours, then incubated with sCA-DMEM solution for 6 hours. We changed medium into DMEM with 10% FBS and incubated for additional 48 hours, then collected for total RNA isolation.
Total RNA was extracted using TRIzol® Regent (Invitrogen). cDNA was then synthesized using High Capacity cDNA Reverse Transcription Kits (Applied Biosystems, Foster City, Calif.). qRT-PCR was performed using an CFX96 Real-Time System (Bio-Rad, Hercules, Calif.) with PowerUp SYBR Green master mix (Bio-Rad). GAPDH served as the internal control. Relative expression was calculated using the 2-ΔΔCt method with correction for different amplification efficiencies.

scar neovasculature = assay: Neovasculature analysis in scars; assay type: in vivo, mouse; conditions: S1P treatment vs vehicle, Balb/c mice, at the point of epithelization
Source text: We performed neovasculature analysis using standard approaches.

scar = assay: Scar thickness analysis (Masson's trichrome); assay type: in vivo, mouse; conditions: 1 μM S1P topical vs vehicle, at the point of epithelization
Source text: We performed H&E, Masson's trichrome staining on paraffin-embedded sections. We used primary antibodies against F4/80, Ki67 and CD34. Immunostaining was developed with VECTASTAIN Universal Elite ABC Kit (Vector, Burlingame, Calif.). We purchased all antibodies from Abcam (Cambridge, UK). We analyzed the results using ImageJ. We calculated scar thickness with Masson's trichrome stain images using ImageJ.

[1] = test system: inflammatory cells in wound; assay: Flow cytometry of cells separated from mouse wound tissues; assay type: in vivo; conditions: 1 uM S1P topical vs vehicle
Source text: Mouse excisional wound splinting model were generated as previously published 1. Mice were anesthetized using isoflurane and removed dorsal hair. Two of 5 mm-diameter full-thickness skin punches were created symmetrically besides the midline. 12 mm diameter circle-shaped silicon lubber splints in which 6 mm diameter circles were punched in center were used for wound splinting. […] were fixed with instant-bonding adhesive and sutures around wounds. After application with any ointment, dressings were performed with Tegaderm (3M, Maplewood, Minn.). We performed cell separation from mouse wound tissues as previously published^4. We digested the tissues cut into small pieces in DMEM with 10% FBS, 1.2 mg/ml hyaluronidase (Sigma Aldrich), 2 mg/ml collagenase (Sigma Aldrich), and 0.2 mg/ml DNase I (Sigma Aldrich) at 37° C. for 90 min. Cell pellets were resuspended in PBS with 2% FBS, incubated with anti-CD16/32 antibody (Biolegend, San Diego, Calif.) for 5 min to block Fcγ receptors. For inflammatory cell recruitment analysis, we stained with phycoerythrin (PE)-conjugated anti-Gr-1, allophycocyanin (APC)-conjugated anti-CD3a, PE/CY7 conjugated anti-CD4, or fluorescein isothiocyanate (FITC)-conjugated anti-CD8a antibody (CiteAb, Bath, UK) at 4° C. for 20 min. […] Cells were analyzed with FACSDiva (BD, San Jose, Calif.).

mouse excisional wound = assay: Mouse excisional wound splinting model, wound area analysis; assay type: in vivo
Source text: Mouse excisional wound splinting model were generated as previously published 1. Mice were anesthetized using isoflurane and removed dorsal hair. Two of 5 mm-diameter full-thickness skin punches were created symmetrically besides the midline. 12 mm diameter circle-shaped silicon lubber splints in which 6 mm diameter circles were punched in center were used for wound splinting. […] were fixed with instant-bonding adhesive and sutures around wounds. After application with any ointment, dressings were performed with Tegaderm (3M, Maplewood, Minn.). S1P was purchased from Sigma-Aldrich (Carlsbad, Calif.). 1 mM S1P in 4% bovine serum albumin was prepared with sonication, diluted 1000-fold for 1 μM ointment or 10-fold for 100 μM ointment with Aquaphor® and mixed well. We generated sCA with 100 ug plasmid DNA and dissolved the sCA pellet with 50 μl PBS. Then we mixed all of the solution into 200 μl of Aquaphor®. We used 250 μl ointment for 4 wounds of 2 mice. Digital photo images were analyzed using GIMP 2.8 software. The pixels of wound area were normalized by those of inside area of silicon splint. Then, the ratios devised by wound area at day 0 were calculated.

wound tissue = assay: Immunohistochemistry of wounds (F4/80, Ki67, CD34); assay type: in vivo, mouse; conditions: 1 uM S1P topical vs vehicle, day 5 after punch
Source text: Mouse excisional wound splinting model were generated as previously published 1. Mice were anesthetized using isoflurane and removed dorsal hair. Two of 5 mm-diameter full-thickness skin punches were created symmetrically besides the midline. 12 mm diameter circle-shaped silicon lubber splints in which 6 mm diameter circles were punched in center were used for wound splinting. […] were fixed with instant-bonding adhesive and sutures around wounds. After application with any ointment, dressings were performed with Tegaderm (3M, Maplewood, Minn.). We performed H&E, Masson's trichrome staining on paraffin-embedded sections. We used primary antibodies against F4/80, Ki67 and CD34. Immunostaining was developed with VECTASTAIN Universal Elite ABC Kit (Vector, Burlingame, Calif.). We purchased all antibodies from Abcam (Cambridge, UK). We analyzed the results using ImageJ.

[2] = NIH 3T3 stimulated with exogenous S1P for 24 hours

Compound | collagen transcription (Col1a1/Col3a1 mRNA) (NIH 3T3 cells) | neovasculatures in scars (scar neovasculature) | scar thickness (scar) | recruitment of granulocytes (Gr-1 positive cells) ([1]; day 2 after punch) | percentage of T cells in wounds ([1]; day 5 after punch) | transcription of Col1a1 (NIH 3T3 cells; [2]) | transcription of Col3a1 (NIH 3T3 cells; [2]) | wound closure (mouse excisional wound; 1 μM S1P topical treatment vs control vehicle) | wound closure (mouse excisional wound; 100 μM S1P treatment, Balb/c mice) | wound closure (mouse excisional wound; high concentration S1P (100 PM) vs vehicle, C57BL6/J mice) | angiogenesis (CD34 immunohistochemistry) (wound tissue) | cell proliferation (Ki67) (wound tissue)
Cc1nn(C)c2nc(NNC(=O)Nc3cc(Cl)nc(Cl)c3)cc(C(C)C)c12 [JTE013, reference compound] | increased | – | – | – | – | – | – | – | – | – | – | –
CCCCCCCCCCCCC/C=C/[C@@H](O)[C@@H](N)COP(=O)(O)O [S1P, sphingosine-1-phosphate] | – | confirmed the development of neovasculatures | statistically significant reduction in scar thickness were not obtained | does not influence | did not increase | inhibited | inhibited | significantly promoted | significantly obstructed | no difference | promoting angiogenesis | no effect
CCCCCCCCc1cccc(NC(=O)[C@H](N)COP(=O)(O)O)c1 [VPC23019, reference compound] | increased | – | – | – | – | – | – | – | – | – | – | –

From US20220257617A1, “COMPOSITIONS AND METHODS FOR KELOIDLESS HEALING” (priority 2017, published 2022)
